According to PubChem BioAssay AID1963837 (Molecular Pharmacology Branch, DTP, NCI, 2024):
pIC50: −log10 of the molar value.

Test system: 843126-344-R-J1-PDC complex spheroid viability
Experiment: Anticancer human tumor 843126-344-R-J1-PDC patient-derived melanoma cell line growth inhibition [POLQ]
Settings: for pIC50: curve of first compound; for viability, T/C: stronger effect = lower value; active means viability on the fitted dose curve at most 10% of control; inactive means the rest
Procedure, shortened: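 PDC + HUVEC + MSC complex spheroids; POLQ inhibitors ± partner drugs; top conc. at/near clinical Cmax, else 10 microM (SN-38 1 microM), half-log dilutions; 37 degrees C, 5% CO2.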

[1] = second compound 0.0316 µM, first compound 0.0316 µM
[2] = second compound 0.0316 µM, first compound 0.1 µM
[3] = second compound 0.0316 µM, first compound 0.316 µM
[4] = second compound 0.0316 µM, first compound 1 µM
[5] = second compound 0.0316 µM, first compound 3.16 µM
[6] = second compound 0.0316 µM, first compound 10 µM
[7] = second compound 0.1 µM, first compound 0.0316 µM
[8] = second compound 0.1 µM, first compound 0.1 µM
[9] = second compound 0.1 µM, first compound 0.316 µM
[10] = second compound 0.1 µM, first compound 1 µM
[11] = second compound 0.1 µM, first compound 3.16 µM
[12] = second compound 0.1 µM, first compound 10 µM
[13] = second compound 0.316 µM, first compound 0.0316 µM
[14] = second compound 0.316 µM, first compound 0.1 µM
[15] = second compound 0.316 µM, first compound 0.316 µM
[16] = second compound 0.316 µM, first compound 1 µM
[17] = second compound 0.316 µM, first compound 3.16 µM
[18] = second compound 0.316 µM, first compound 10 µM
[19] = second compound 1 µM, first compound 0.0316 µM
[20] = second compound 1 µM, first compound 0.1 µM
[21] = second compound 1 µM, first compound 0.316 µM
[22] = second compound 1 µM, first compound 1 µM
[23] = second compound 1 µM, first compound 3.16 µM
[24] = second compound 1 µM, first compound 10 µM
[25] = second compound 3.16 µM, first compound 0.0316 µM
[26] = second compound 3.16 µM, first compound 0.1 µM
[27] = second compound 3.16 µM, first compound 0.316 µM
[28] = second compound 3.16 µM, first compound 1 µM
[29] = second compound 3.16 µM, first compound 3.16 µM
[30] = second compound 3.16 µM, first compound 10 µM
[31] = second compound 10 µM, first compound 0.0316 µM
[32] = second compound 10 µM, first compound 0.1 µM
[33] = second compound 10 µM, first compound 0.316 µM
[34] = second compound 10 µM, first compound 1 µM
[35] = second compound 10 µM, first compound 3.16 µM
[36] = second compound 10 µM, first compound 10 µM
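Wherever viability, T/C is given: spheroids exposed to drugs for seven days before readout.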

C=CC(=O)N1CCN(c2nc(=O)n(-c3c(C)ccnc3C(C)C)c3nc(-c4c(O)cccc4F)c(F)cc23)C(C)C1 (stereo not drawn) + Nc1ccc(C#CCN(C(=O)Cc2ncc(C(F)(F)F)cc2C(F)(F)F)c2ccc(F)cc2)nn1
inactive: viability, T/C [1] 105% | viability, T/C [2] 82.8% | viability, T/C [3] 97.3% | viability, T/C [4] 102% | viability, T/C [5] 101% | viability, T/C [6] 84.4% | viability, T/C [7] 104% | viability, T/C [8] 86.1% | viability, T/C [9] 84.9% | viability, T/C [10] 97.8% | viability, T/C [11] 99.2% | viability, T/C [12] 85.6% | viability, T/C [13] 89.3% | viability, T/C [14] 94.9% | viability, T/C [15] 104% | viability, T/C [16] 113% | viability, T/C [17] 94.5% | viability, T/C [18] 85.1% | viability, T/C [19] 101% | viability, T/C [20] 104% | viability, T/C [21] 107% | viability, T/C [22] 94.7% | viability, T/C [23] 104% | viability, T/C [24] 85.4% | viability, T/C [25] 87.5% | viability, T/C [26] 88.7% | viability, T/C [27] 106% | viability, T/C [28] 92.2% | viability, T/C [29] 85.8% | viability, T/C [30] 84.5% | viability, T/C [31] 83.7% | viability, T/C [32] 91.1% | viability, T/C [33] 84.1% | viability, T/C [34] 98.5% | viability, T/C [35] 95.7% | viability, T/C [36] 81.2%
< 5.00: pIC50 (second compound 0.0316 µM) | pIC50 (second compound 0.1 µM) | pIC50 (second compound 0.316 µM) | pIC50 (second compound 1 µM) | pIC50 (second compound 3.16 µM) | pIC50 (second compound 10 µM)

CC(C)n1c(=O)n(C)c2cnc3cc(F)c(-c4ccc(OCCCN5CCCCC5)nc4)cc3c21 + Nc1ccc(C#CCN(C(=O)Cc2ncc(C(F)(F)F)cc2C(F)(F)F)c2ccc(F)cc2)nn1
inactive: viability, T/C [1] 91.9% | viability, T/C [2] 74% | viability, T/C [3] 86.2% | viability, T/C [4] 92.6% | viability, T/C [5] 81.5% | viability, T/C [6] 77.8% | viability, T/C [7] 93.8% | viability, T/C [8] 92.4% | viability, T/C [9] 77.7% | viability, T/C [10] 84.6% | viability, T/C [11] 90.7% | viability, T/C [12] 70.6% | viability, T/C [13] 80.8% | viability, T/C [14] 95.4% | viability, T/C [15] 94.5% | viability, T/C [16] 85.7% | viability, T/C [17] 89.2% | viability, T/C [18] 71.6% | viability, T/C [19] 89.3% | viability, T/C [20] 85.7% | viability, T/C [21] 90.9% | viability, T/C [22] 93.5% | viability, T/C [23] 81% | viability, T/C [24] 64.1% | viability, T/C [25] 76.5% | viability, T/C [26] 84% | viability, T/C [27] 88.9% | viability, T/C [28] 82.8% | viability, T/C [29] 81.8% | viability, T/C [30] 81% | viability, T/C [31] 85.3% | viability, T/C [32] 73.2% | viability, T/C [33] 86.8% | viability, T/C [34] 91.4% | viability, T/C [35] 78.3% | viability, T/C [36] 67.8%
< 5.00: pIC50 (second compound 0.0316 µM) | pIC50 (second compound 0.1 µM) | pIC50 (second compound 0.316 µM) | pIC50 (second compound 1 µM) | pIC50 (second compound 3.16 µM) | pIC50 (second compound 10 µM)

CC1COCCN1c1cc(-c2ccnn2C)c2ccnc(-c3ccn[nH]3)c2n1 (stereo not drawn) + Nc1ccc(C#CCN(C(=O)Cc2ncc(C(F)(F)F)cc2C(F)(F)F)c2ccc(F)cc2)nn1
6.13: pIC50 (second compound 1 µM)
5.95: pIC50 (second compound 0.1 µM)
inactive: viability, T/C [1] 89.6% | viability, T/C [2] 76.3% | viability, T/C [3] 65.3% | viability, T/C [4] 48.7% | viability, T/C [5] 36.7% | viability, T/C [6] 29% | viability, T/C [7] 84.3% | viability, T/C [8] 71.2% | viability, T/C [9] 63.5% | viability, T/C [10] 48.3% | viability, T/C [11] 43.5% | viability, T/C [12] 28.6% | viability, T/C [13] 85.3% | viability, T/C [14] 77.2% | viability, T/C [15] 63.9% | viability, T/C [16] 46.6% | viability, T/C [17] 40.6% | viability, T/C [18] 30.2% | viability, T/C [19] 84.6% | viability, T/C [20] 65.8% | viability, T/C [21] 55.9% | viability, T/C [22] 49.8% | viability, T/C [23] 41.3% | viability, T/C [24] 32.8% | viability, T/C [25] 75.9% | viability, T/C [26] 70.8% | viability, T/C [27] 59.6% | viability, T/C [28] 44.5% | viability, T/C [29] 34.5% | viability, T/C [30] 29.9% | viability, T/C [31] 73.4% | viability, T/C [32] 66.4% | viability, T/C [33] 52.8% | viability, T/C [34] 43.9% | viability, T/C [35] 36.9% | viability, T/C [36] 29.1%
6.03: pIC50 (second compound 0.0316 µM)
6.18: pIC50 (second compound 3.16 µM)
6.29: pIC50 (second compound 10 µM)
6.04: pIC50 (second compound 0.316 µM)

CC1COCCN1c1cc(C2(S(C)(=N)=O)CC2)nc(-c2ccnc3[nH]ccc23)n1 (stereo not drawn) + Nc1ccc(C#CCN(C(=O)Cc2ncc(C(F)(F)F)cc2C(F)(F)F)c2ccc(F)cc2)nn1
5.01: pIC50 (second compound 0.316 µM)
< 5.00: pIC50 (second compound 0.0316 µM) | pIC50 (second compound 0.1 µM) | pIC50 (second compound 1 µM) | pIC50 (second compound 3.16 µM) | pIC50 (second compound 10 µM)
inactive: viability, T/C [1] 101% | viability, T/C [2] 84.8% | viability, T/C [3] 86.6% | viability, T/C [4] 76.9% | viability, T/C [5] 72.7% | viability, T/C [6] 51.6% | viability, T/C [7] 84.8% | viability, T/C [8] 90.2% | viability, T/C [9] 88.8% | viability, T/C [10] 103% | viability, T/C [11] 76.1% | viability, T/C [12] 55.8% | viability, T/C [13] 88.4% | viability, T/C [14] 92.1% | viability, T/C [15] 82.3% | viability, T/C [16] 77.5% | viability, T/C [17] 70% | viability, T/C [18] 49.2% | viability, T/C [19] 96.2% | viability, T/C [20] 92.8% | viability, T/C [21] 86.3% | viability, T/C [22] 90.5% | viability, T/C [23] 76.3% | viability, T/C [24] 51.8% | viability, T/C [25] 89.9% | viability, T/C [26] 84% | viability, T/C [27] 89% | viability, T/C [28] 86.1% | viability, T/C [29] 69.8% | viability, T/C [30] 53.8% | viability, T/C [31] 94.6% | viability, T/C [32] 84% | viability, T/C [33] 81.5% | viability, T/C [34] 75.1% | viability, T/C [35] 65.2% | viability, T/C [36] 51.8%
